Reference: ChEMBL document CHEMBL4340552, “Identification of BMI1 promoter inhibitors from Streptomyces sp. IFM-11958” (Bioorg Med Chem, 2019)

Assays:
[1] = Inhibition of BMI1 promoter in HEK293T cells incubated for 24 hrs by luciferase reporter gene assay; type: cell-based; details: Homo sapiens, HEK-293T
Huh-7 [2] = assay: Inhibition of sphere formation in human HuH7 cells incubated for 72 hrs by sphere forming assay; type: functional, cell-based
DU-145 [3] = assay: Cytotoxicity against human DU145 cells assessed as reduction in cell viability incubated for 24 hrs by FMCA method; type: functional, cell-based; details: DU-145, 24 h
Huh-7 [4] = assay: Cytotoxicity against human HuH7 cells assessed as reduction in cell viability incubated for 24 hrs by FMCA method; type: functional, cell-based; details: Huh-7, 24 h
HEK293 = assay: Cytotoxicity against HEK293 cells assessed as reduction in cell viability incubated for 24 hrs by FMCA method; type: cell-based; details: Homo sapiens, HEK293, 24 h
DU-145 [5] = assay: Down-regulation of BMI1 protein expression in human DU145 cells incubated for 24 hrs by Western blot analysis; type: functional, cell-based
DU-145 [6] = assay: Down-regulation of c-Myc protein expression in human DU145 cells incubated for 24 hrs by Western blot analysis; type: functional, cell-based
DU-145 [7] = assay: Down-regulation of BMI1 mRNA expression in human DU145 cells incubated for 24 hrs by Quantitative RT-PCR analysis; type: functional, cell-based
DU-145 [8] = assay: Up-regulation of p16Ink4a mRNA expression in human DU145 cells incubated for 24 hrs by Quantitative RT-PCR analysis; type: functional, cell-based

With O=C1CCC(=O)N(O)CCCCCNC(=O)CCC(=O)N(O)CCCCCNC(=O)CCC(=O)N(O)CCCCCN1 [NOCARDAMINE] the IC50 [1] was 22000 nM.
With CC[C@@H]1[C@@H](C)O[C@@](O)([C@@H](C)[C@H](O)[C@H](C)[C@H]2OC(=O)/C=C/C=C/[C@H](C)[C@@H]([C@@H](C)[C@@H](O)[C@H](C)[C@@]3(O)C[C@@H](O[C@H]4C[C@H](O)[C@H](O)[C@H](C)O4)[C@H](CC)[C@@H](C)O3)OC(=O)/C=C/C=C/[C@@H]2C)C[C@H]1O[C@H]1C[C@H](O)[C@H](O)[C@H](C)O1 the inhibition (Huh-7 [2]) was “Dose-dependent effect”, the IC50 [1] was 30 nM and the IC50 (DU-145 [3]) was 31 nM. For the same compound, the IC50 (Huh-7 [4]) was 4.2 nM, the IC50 (HEK293) was 200 nM and the inhibition (DU-145 [5]) was “Dose-dependent effect”. The inhibition (DU-145 [6]) was “Dose-dependent effect”, the Activity (DU-145 [7]) was “Dose-dependent effect” and the Activity (DU-145 [8]) was “Dose-dependent effect”.
Work on CC[C@@H]1[C@@H](C)O[C@@](O)([C@@H](C)[C@H](O)[C@H](C)[C@H]2OC(=O)/C=C/C=C/[C@H](C)[C@@H]([C@@H](C)[C@@H](O)[C@H](C)[C@@]3(O)C[C@@H](O[C@H]4C[C@H](O)[C@H](O)[C@H](C)O4)[C@H](CC)[C@@H](C)O3)OC(=O)/C(C)=C/C=C/[C@@H]2C)C[C@H]1O[C@H]1C[C@H](O)[C@H](O)[C@H](C)O1 yielded an IC50 [1] of 447 nM.
